Data on 9 compounds can be found in patent US20140323562A1, “THIOSULFINATE ANTIOXIDANTS AND METHODS OF USE THEREOF” (Universition of Ottawa, priority 2011, published 2014).

Data set [1] can be described thus: Peroxyl radical clock (methyl linoleate oxidation, Z,E:E,E product ratio by HPLC). As to conditions: for kinh/kinh (C6BPT): chlorobenzene at 37° C., peroxyl radical clock. How it is done:
The kinetics of reaction of p-n-C6H13-BPT with peroxyls was studied using a method based on the peroxyl radical clocks described in Roschek, B.; Tallman, K. A.; Rector, C. L.; Gillmore, J. G.; Pratt, D. A.; Punta, C.; Porter, N. A. J. Org. Chem. 2006, 71, 3527-3532.
Stock solutions of methyl linoleate (“MeLin”) (1.0 M), methoxy 2,2′-Azobis(4-methoxy-2,4-dimethyl valeronitrile) (“MeOAMVN”) (0.1 M), and the thiosulfinates, BPT and p-n-C6H13-BPT 5, were prepared in chlorobenzene. Samples were assembled in 1 mL HPLC autosampler vials with a total reaction volume of 100 μL. Solutions were prepared in the following order to avoid premature oxidation:thiosulfinate (1 mM-7 mM), MeLin (0.10 M) and then MeOAMVN (0.01 M), and diluted to 100 μL with chlorobenzene. The sealed samples were then heated to 37° C. for 2 h. After 2 h, the oxidation was stopped by the addition of butylated hydroxytoluene (“BHT”) (50 μL of 1.0 M solution in hexanes), followed by reduction of the hydroperoxides to alcohols by triphenylphosphine (50 μL of 1 M solution in chlorobenzene). The samples were then diluted to 1 mL with HPLC grade hexanes and analyzed by HPLC (0.5% i-PrOH in hexanes, 1 mL min-1, 40 min, Sun-Fire Silica, 5 mm 4.6×250 mm column, UV detection at 234 nm). The ratio of products (Z,E:E,E) was plotted versus thiosulfinate concentration to derive kH, (Roschek, B.; Tallman, K. A.; Rector, C. L.; Gillmore, J. G.; Pratt, D. A.; Punta, C.; Porter, N. A. J. Org. Chem. 2006, 71, 3527-3532).
The peroxyl radical clock method was used to measure the rate constants for the reaction of a furan-containing thiosulfinate compound (S-(furan-2-ylmethyl) furan-2-ylmethanesulfinothioate) with peroxyl radicals (kinh). The method relies on the competition between the β-fragmentation of a peroxyl radical and its trapping by a H-atom donor. When methyl linoleate is used as a precursor, the reduction of the two initially formed (Z,E)-dienylperoxyl radicals by the antioxidant (A-H in the scheme below) competes with their isomerization to the more thermodynamically stable (E,E)-dienylperoxyl radicals. […]

A short description of data set [2]: Decomposition / Cope elimination half-life (HPLC). Format: physicochemical. From the text: The lack of radical-trapping activity of allicin and petivericin obvious from FIGS. 1A and 1B could be due to their partitioning to the aqueous phase, where Cope elimination to produce the reactive sulfenic acids 3 and 4, respectively, is slowed dramatically by H-bonding. (V. Vaidya, K. U. Ingold, D. A. Pratt, Angew. Chem. Int. Ed. 2009, 48, 157-160; P. T. Lynett, K. Butts, V. Vaidya, G. E. Garrett, D. A. Pratt, Org. Biomol. Chem. 2011, 9, 3320-3330; E. Block, Angew. Chem. Int. Ed. Engl. 1992, 31, 1135-1178; and F. Freeman, Y. Kodera, J. Agric. Food Chem. 1995, 43, 2332-2338] However, the half-life for decomposition of allicin in the liposome solutions (determined by HPLC) was extended by only 50% compared to that determined in non-H-bonding organic solvents (˜60 minutes). (V. Vaidya, K. U. Ingold, D. A. Pratt, Angew. Chem. Int. Ed. 2009, 48, 157-160; P. T. Lynett, K. Butts, V. Vaidya, G. E. Garrett, D. A. Pratt, Org. Biomol. Chem. 2011, 9, 3320-3330). This is consistent with a previous report which provides a partition coefficient for allicin in phosphatidylcholine:water of Kp=11 (T. Miron, A. Rabinkov, D. Mirelman, M. Wilchek, L. Weiner, Biochim. Biophys. Acta 2000, 1463, 20-30). The Cope elimination of 3 from petivericin was roughly identical—with a half-life of ˜90 minutes (see Supp. Info.). […]

Data set [3] can be described thus: Oxidation of egg phosphatidylcholine liposomes containing the fluorescent probe H2B-PMHC. As to conditions: for effect on oxidation of liposome-embedded H2B-PMHC with one equivalent of NAC: MeOAMVN- or ABAP-mediated, 4.5-15 μM, equivalent amount of NAC, PBS pH 7.4; for inhibition of oxidation of liposome-embedded H2B-PMHC: MeOAMVN-mediated (0.2 mM), compound 1.5-15 μM; for inhibition of oxidation of liposome-embedded H2B-PMHC / radical trapping at the lipid/water interface: no thiol; for efficacy relative to α-TOH in a lipid bilayer: inferred from no effect at 15 μM (100-fold over H2BPMHC); for radical trapping at the lipid/water interface: water-soluble ABAP-mediated oxidation; for effect of increasing equivalents of NAC on inhibited period: 4.5 μM compound, MeOAMVN and ABAP, NAC 1-5 equiv. (9) or 0-4 equiv. (5). The procedure:
FIG. 1 depicts representative fluorescence intensity-time profiles from MeOAMVN-mediated (0.2 mM) oxidations of egg phosphatidylcholine liposomes (1 mM) containing 0.15 μM H2BPMHC and increasing concentrations (1.5, 3.0, 4.5, 6.0, 7.5 and 15 μM) of 1 (A), 2 (B), 5 (C) and 8 (D—15 μM profile not shown); fluorescence (λex=485 nm; λem=520 nm) was recorded every 50 s;
FIG. 2 depicts representative fluorescence intensity-time profiles from MeOAMVN-mediated (0.2 mM, left) and ABAP-mediated (2.7 mM, right) oxidations of egg phosphatidylcholine liposomes (1 mM) containing 0.15 μM H2B-PMHC and either 2 (A, B) or 9 (C, D) at 4.5 μM (black), 7.5 μM (grey) or 15 μM (light grey) in PBS buffer of pH 7.4 containing an equivalent amount of NAC; panels E and F show the effect of NAC only (4.5, 7.5 and 15 μM); fluorescence (λex=485 nm; λem=520 nm) was recorded every 50 s; and
FIG. 3 depicts representative fluorescence-time profiles from MeOAMVN-mediated (0.2 mM, left) and ABAP-mediated (2.7 mM, right) oxidations of egg phosphatidylcholine liposomes (1 mM) containing 0.15 μM H2B-PMHC and either 4.5 μM 9 (A, B) with 1, 2, 3 or 5 equiv. of NAC or 4.5 μM 5 (C, D) with 0, 1, 2 or 4 equiv. of NAC; fluorescence (λex=485 nm; λem=520 nm) was recorded every 50 s.
To shed some light on this issue, the radical-trapping abilities of 1, 2 and 5 have been studied in unilamellar phosphatidylcholine liposomes—convenient models for the lipid bilayers that make up biological membranes. The relative reactivities of the compounds were determined using H2B-PMHC (6), an analog of α-tocopherol (7 or α-TOH, the most biologically-active form of Vitamin E and Nature's premier lipophilic radical-trapping antioxidant) (G. W. Burton, K. U. Ingold, Acc. Chem. Res. 1986, 19, 194-201), which undergoes a significant fluorescence enhancement upon oxidation by two equivalents of peroxyl radical. In the presence of a good radical-trapping antioxidant, the fluorescence onset is suppressed since the radicals are trapped by the compound under investigation in lieu of reacting with H2B-PMHC.
Initial experiments focused on the ability of either 1 or 2 to inhibit the oxidation of liposome-embedded H2B-PMHC by either lipophilic or hydrophilic peroxyl radicals derived from the azo initiators MeOAMVN (N. Noguchi, H. Yamashita, N. Gotoh, Y. Yamamoto, R. Numano, E. Niki, Free Rad. Biol. Med. 1998, 24, 259-268) and ABAP, (L. R. C. Barclay, S. J. Locke, J. M. MacNeil, J. VanKessel, G. W. Burton, K. U. Ingold, J. Am. Chem. Soc. 1984, 106, 2479-2481) respectively. Representative results are shown for MeOAMVN-mediated oxidations in FIG. 1. […] Since the reactivity of H2B-PMHC is essentially the same as that of α-TOH, the efficacy of 1 and 2 must therefore be less than 1/100 that of α-TOH in a lipid bilayer.
The time required to reach maximum fluorescence in the first phase of the plots in FIG. 1 (ca. 400 counts), which we will hereafter refer to as the ‘inhibited period’, reflects the stoichiometry of the reaction of the antioxidant and the peroxyl radicals. […] Chem. Int. Ed. 2009, 48, 157-160; and R. Amorati, P. T. Lynett, L. Valgimigli, D. A. Pratt, Chem. Eur. J. 2012, 18, 6370-6379)

For data set [4] the following is noted: chlorobenzene, 37° C., same conditions; cited from earlier work.
The conditions of data set [5]: going from chlorobenzene to acetonitrile; cited from earlier work.
The conditions of data set [6]: known from literature under these conditions; cited from earlier work.
The mark [7] stands for this setting: radicals generated using MeOAMVN.

Where two headings read alike, the source gives them in different places. Marks after values point to notes of the source that are not given here.

Consider `CCCCCCc1ccc(CS[S+]([O-])Cc2ccc(CCCCCC)cc2)cc1` (stereo not shown) [p-n-C6H13-BPT 5, p-n-C6H13-Benzyl phenylmethane thiosulfinate], for which, in data set [1], the “kinh/kinh (C6BPT)” value is given as 1.0^a. Also, the “rate constant relative to that of BPT” value in data set [1] (chlorobenzene, 37° C., MeLin 0.10 M, MeOAMVN 0.01 M) is reported as “about 1.6 fold”.
As to `C=CCS[S+]([O-])CC=C` (stereo not shown) [compound 1, allicin], the “extension of half-life for decomposition in liposome solutions compared to non-H-bonding organic solvents” value in data set [2] (HPLC) worked out at 50%. In data set [3], the “effect on oxidation of liposome-embedded H2B-PMHC with one equivalent of NAC” value (from here on “effect on oxidation”) is “little effect”, the “inhibition of oxidation of liposome-embedded H2B-PMHC” value (from here on “inhibition”) is “neither 1 nor 2 were able to slow the oxidation”, the “efficacy relative to α-TOH in a lipid bilayer” value is reported as “less than 1/100” and the “radical trapping at the lipid/water interface” value is given as “cannot”.
Take `[O-][S+](Cc1ccccc1)SCc1ccccc1` (stereo not shown) [BPT, S-Benzyl phenylmethane thiosulfinate]: the half-life in data set [2] (liposome solutions) is around 1.5 h. The kH in data set [4] was 200000 M⁻¹ s⁻¹. Besides, in data set [3], the “effect on oxidation” value is “little effect”, the “inhibition” value is reported as “neither 1 nor 2 were able to slow the oxidation”, the “efficacy relative to α-TOH in a lipid bilayer” value is “less than 1/100” and the “radical trapping at the lipid/water interface” value is on record as “cannot”.
Regarding `CCCCCCc1ccc(CS[S+]([O-])Cc2ccc(CCCCCC)cc2)cc1` (stereo not shown) [compound 9], in data set [3], the “effect of increasing equivalents of NAC on inhibited period” value is listed as “proportionately increased the inhibited period”; the “effect on oxidation” value was “pronounced inhibited period”; the “inhibition” value is “essentially indistinguishable from those supplemented with allicin and petivericin”.
In the case of `OSC12c3ccccc3C(c3ccccc31)c1ccccc12` [compound 5, 9-triptycenesulfenic acid], in data set [3], the “effect of increasing equivalents of NAC on inhibited period” value is given as “the inhibited period was extended with increasing concentration of NAC”, the “inhibition” value is on record as “excellent concentration-dependent radical-trapping activity” and the “radical trapping at the lipid/water interface” value is “can trap radicals at the lipid/water interface”. Also, in data set [3] (MeOAMVN-mediated, in presence of compound), the “rate of H2B-PMHC oxidation (fluorescence increase)” value is listed as “essentially nil”. Besides, the “number of peroxyl radicals trapped (stoichiometry)” value in data set [3] (implied from slope relative to 8) is recorded as “one”. The “slope of inhibited period versus concentration” value in data set [3] (radicals generated using AAPH) came to 10 min/µM. Further, the “slope of inhibited period versus concentration” value in data set [3] (setting [7]) is 14 min/µM.
With `Cc1c(C)c2c(c(C)c1O)CC[C@@](C)(CCC[C@H](C)CCC[C@H](C)CCCC(C)C)O2` [compound 7, α-tocopherol], the “slowing of rate of reaction with peroxyl radicals by H-bond accepting solvent” value in data set [5] is 20 fold.
Turning to `[O-][S+](Cc1ccco1)SCc1ccco1` (stereo not drawn) [S-(furan-2-ylmethyl) furan-2-ylmethanesulfinothioate], the “kinh/kinh (C6BPT)” value in data set [1] stood at 1.1.
As for `Cc1c(C)c2c(c(C)c1O)CCC(C)(C)O2` [compound 8, PMHC], the “number of peroxyl radicals trapped (stoichiometry)” value in data set [6] is reported as “two”. Moreover, the “slope of inhibited period versus concentration” value in data set [3] (radicals generated using AAPH) worked out at 21 min/µM; in data set [3] (setting [7]) it was 31 min/µM. Further, in data set [3], the “radical trapping at the lipid/water interface” value is “can trap radicals at the lipid/water interface”.
For `CC(=O)N[C@@H](CS)C(=O)O` [NAC, N-acetylcysteine], the “effect of NAC alone on oxidation” value in data set [3] (ABAP-mediated, 4.5, 7.5 and 15 μM) is “only a modest retarding effect”; in data set [3] (MeOAMVN-mediated, 4.5, 7.5 and 15 μM) it was “does little”.
